Data published in patent US5872148A, “Compositions useful as a cannabinoid receptor probe” (University of Connecticut, priority 1995, dated 1999).

Key:
[1] = target: T1, cannabinoid receptor (Rattus norvegicus, UniProt P20272); assay: Receptor binding assay, [^3 H]CP-55,940, rat forebrain membrane, Tris buffer with bovine serum albumin; settings: for affinity for the cannabinoid receptor (in words): demonstrated by IC50 values; for IC50: rat forebrain membrane, 0.8 nM [^3 H]CP-55,940, 0.1% bovine serum albumin, pH 7.4, 1 hour at 30° C.
T1 construct: membrane preparations from rat forebrains; from tissue; host or cells: rat forebrain membranes
Description: The affinity of compositions of this invention for cannabinoid binding sites was tested by using membrane preparations from rat forebrains. A composition is tested by incubating various concentrations of the composition with approximately 50 μg of rat forebrain membrane, 20 mM Tris Buffer, 3 mM MgCl2, 1 mM EDTA (pH, 7.4) containing 0.1% bovine serum albumin, and 0.8 nM of the cannabinoid radioligand [^3 H]CP-55,940, (Dupont-NEN). Assays were incubated in Regisil-treated test tubes for 1 hour at 30° C. and were subsequently filtered on GF/C filters using a Brandell M-24 Cell Harvester. Following four washes with 20 mM Tris buffer (pH 7.4) and 3 mM MgCl2, the GF/C filters were collected, and shaken for 1 hour with 2 mL of 0.1% SDS. Ligand binding was counted on a Beckman liquid scintillation counter.
Non-specific binding was assessed from tubes containing 250 nM desacetyllevo-nantradol by the method described in W. A. Devane et al., Determination and Characterization of a Cannabinoid Receptor in Rat Brain, Mol. Pharmacol., 34:605 (1988). Data were collected from 3 experiments performed on 11-hydroxy-7'-azido-1',1'-dimethylheptyl-Δ^8 -THC and on 11-hydroxy-7'-isothiocyanate-1',1'-dimethyl-heptyl-Δ^8 -THC, each.

[2] = target: T1, cannabinoid receptor; assay: Receptor inactivation test (equilibration / photoirradiation), rat forebrain membranes; format: binding; settings: 1 hour at 30° C., azide: UV irradiated 13 minutes, washed
Description: The ability of affinity ligands to inactivate the cannabinoid receptor in vitro was tested through photoirradiation experiments. All procedures involving affinity ligands were conducted in the dark using only a safety light. Rat forebrain membranes (1-3 mg) in 20 mM Tris Buffer, 3 mM MgCl2, and 1 mM EDTA (pH 7.4) were incubated with an appropriate amount of either 11-hydroxy-7'-azido-1',1'-dimethylheptyl-Δ^8 -THC or 11-hydroxy-7'-isothiocyanate-1',1'-dimethyl-heptyl-Δ^8 -THC, in a six-well culture plate for 1 hour at 30° C. At the end of the equilibration membranes incubated with 11-hydroxy-7'-azido-1',1'-dimethylheptyl-Δ^8 -THC were placed on ice and irradiated for 13 minutes with UV light. Membranes incubated with either of the two compounds were then pelleted using a bench top microcentrifuge. The pellets were subsequently washed at least three times with the working buffer containing 1 mg/mL bovine serum albumin, allowing at least 10 minutes between each wash for equilibration. The final pellets were resuspended in the working buffer and assayed for cannabinoid binding activity by the method of Devane et al., referenced above.

[3] = tested on: male ICR (Institute of Cancer Research) mice; assay: Antinociceptive activity in the mouse tail-flick assay; format: in vivo; settings: intravenous injection; for ED50: Mus musculus, read-out: Antinociception MPE, potency (ED50 value)
Description: (§1) 5'-azido-THC was evaluated in vivo and compared to the parent compound (-)-Δ^8 -THC for cannabimimetic activity. Both analogs were tested in male ICR (Institute of Cancer Research) mice (Harlan, Frederick, Md.) following intravenous injection, for their abilities to produce sedation (decreased locomotor activity) and catalepsy (induction of ring immobility) as measures of drug-induced behavioral effects. They were also evaluated in the same mice for their abilities to produce hypothermia and antinociceptive activity in the mouse tail-flick assay.
(§2) The results obtained are shown in Table I. Dose-response data were analyzed statistically by ANOVA, and the potency (ED50 value) and efficacy (maximum effect) were determined. The maximum effects given represent percent inhibition (of locomotor activity), ° C. (of hypothermia), percent immobility (of catalepsy) and percent MPE (maximum possible effect of latency of antiociception procedure).
(§3) This evaluation was performed by methods described in M. D. Compton et al., J. Med. Chem., 34:3310 (1991), A. Makriyannis et al., Life Sci., 47:2173 (1990), and A. Charalandous et al., Pharmacol. Biochem. Behav., 40:509 (1991).

[4] = target: T1, cannabinoid receptor; assay: Alternate affinity test, [^3 H]CP-55,940, rat forebrain membrane, potassium diethyl malonate buffer with β-cyclodextrin; format: binding; settings: 100 fmol/mL [^3 H]CP-55,940, 0.01% β-cyclodextrin, pH 7.4, 1 hour at 30° C.
Description: An alternate affinity test used approximately 30 μg of rat forebrain membrane in a buffer containing 20 mM potassium diethyl malonate (pH 7.4), 3 mM MgCl2, 0.01% β-cyclodextrin, and 100 fmol/mL [^3 H]CP-55,940, (Dupont-NEN). The assays were incubated in Regisil-treated test tubes for 1 hour at 30° C. and were subsequently filtered on GF/C filters. Just prior to filtration, 200 μL of 50 mg/mL bovine serum albumin is added. Following filtration, ligand binding was counted on a Beckman liquid scintillation counter.
Non-specific binding was assessed from tubes containing 100 nM desacetyllevo-nantradol by the method described in W. A. Devane et al., Determination and Characterization of a Cannabinoid Receptor in Rat Brain, Mol. Pharmacol., 34:605 (1988).

[5] = target: T1, cannabinoid receptor; assay: Alternate receptor inactivation test (equilibration and UV irradiation), rat forebrain membrane; format: binding; settings: 1 hour at 30° C., shortwave UV light
Description: In an alternate receptor inactivation test, 0.5-3 mg of rat forebrain membrane was incubated with (-)5'-azido-Δ^8 -THC, previously resuspended in 5% β-cyclodextrin in 12-well tissue culture plates containing 1 mL of 20 mM potassium diethyl malonate (pH 7.4) and 0.01% β-cyclodextrin. The assay was incubated for 1 hour at 30° C. and then was placed on ice and irradiated for 13 minutes with shortwave UV light from a UVGL-25 mineralight at 10 cm distance […].

[6] = tested on: male ICR (Institute of Cancer Research) mice; assay: Hypothermia in mice; format: in vivo; settings: for ED50: Mus musculus, read-out: Hypothermia (Δtemperature), potency (ED50 value); for ED50 / Hypothermia (Δtemperature), efficacy (maximum effect): intravenous injection, mice
Description: as §1, §2, §3

[7] = tested on: male ICR (Institute of Cancer Research) mice; assay: Sedation (decreased locomotor activity) in mice; format: in vivo; settings: intravenous injection; for ED50: Mus musculus, read-out: Locomotion Inhibition, potency (ED50 value)
Description: as §1, §2, §3

[8] = tested on: male ICR (Institute of Cancer Research) mice; assay: Catalepsy (induction of ring immobility) in mice; format: in vivo; settings: for ED50: Mus musculus, read-out: Catalepsy Immobility, potency (ED50 value); for ED50 / Catalepsy Immobility, efficacy (maximum effect), percent immobility: intravenous injection, mice
Description: as §1, §2, §3

[9] = milligram/kilogram basis, vs (-)-Δ^8 -THC

T1 sequence (P20272 whole entry): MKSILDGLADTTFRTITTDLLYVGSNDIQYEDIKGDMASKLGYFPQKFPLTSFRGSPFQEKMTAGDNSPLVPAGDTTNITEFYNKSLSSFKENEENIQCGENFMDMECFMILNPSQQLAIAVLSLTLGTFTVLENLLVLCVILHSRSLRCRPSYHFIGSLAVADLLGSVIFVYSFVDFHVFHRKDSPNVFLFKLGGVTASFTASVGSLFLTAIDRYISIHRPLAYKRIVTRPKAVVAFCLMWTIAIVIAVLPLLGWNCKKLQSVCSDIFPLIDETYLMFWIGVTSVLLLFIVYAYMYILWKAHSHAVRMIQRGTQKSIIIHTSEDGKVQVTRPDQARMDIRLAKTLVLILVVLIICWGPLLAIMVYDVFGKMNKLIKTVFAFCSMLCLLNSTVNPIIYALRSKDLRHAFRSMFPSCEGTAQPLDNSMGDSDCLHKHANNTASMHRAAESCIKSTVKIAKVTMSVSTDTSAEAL

CC(C)(CCCCCCN=[N+]=[N-])c1cc(O)c2c(c1)OC(C)(C)[C@@H]1CC=C(CO)C[C@@H]21 [11-hydroxy-7'-azido-1',1'-dimethylheptyl-Δ^8 -THC]
affinity for the cannabinoid receptor (in words) [1]: high affinity | IC50 [1]: 2.5 nM | ability to inactivate the cannabinoid receptor in vitro [2]: completely inactivate the cannabinoid receptor

CC(C)(CCCCCCN=C=S)c1cc(O)c2c(c1)OC(C)(C)[C@@H]1CC=C(CO)C[C@@H]21 [11-hydroxy-7'-isothiocyanate-1',1'-dimethylheptyl-Δ^8 -THC]
affinity for the cannabinoid receptor (in words) [1]: high affinity | IC50 [1]: 1.5 nM | ability to inactivate the cannabinoid receptor in vitro [2]: completely inactivate the cannabinoid receptor

CC1=CC[C@@H]2[C@@H](C1)c1c(O)cc(CCCCCN=[N+]=[N-])cc1OC2(C)C [(-)5'-azido-Δ^8 -THC]
ED50 [3]: 0.1 mg/kg | Antinociception, efficacy (maximum effect), percent MPE (maximum possible effect) [3]: 100% | IC50 [4]: 31 nM | irreversible inactivation of the receptors [5]: did not irreversibly inactivate the receptors | specific receptor binding in equilibrated and irradiated membranes [5]: no specific receptor binding was observed | ED50 [6]: 0.8 mg/kg | Hypothermia (Δtemperature), efficacy (maximum effect) [6]: -3.8 °C | times more potent than the parent compound (hypothermia) [6, 9]: 19 times | ED50 [7]: 0.2 mg/kg | Locomotion Inhibition, efficacy (maximum effect), percent inhibition [7]: 73% | ED50 [8]: 0.8 mg/kg | Catalepsy Immobility, efficacy (maximum effect), percent immobility [8]: 57% | times more potent than the parent compound (catalepsy) [8, 9]: 6.5 times

CCCCCc1cc(O)c2c(c1)OC(C)(C)[C@@H]1CC=C(C)C[C@@H]21 [(-)-Δ^8 -THC, reference compound]
ED50 [3]: 1.5 mg/kg | Antinociception, efficacy (maximum effect), percent MPE (maximum possible effect) [3]: 100% | ED50 [6]: 15.5 mg/kg | Hypothermia (Δtemperature), efficacy (maximum effect) [6]: -5.9 °C | ED50 [7]: 1.9 mg/kg | Locomotion Inhibition, efficacy (maximum effect), percent inhibition [7]: 79% | ED50 [8]: 5.2 mg/kg | Catalepsy Immobility, efficacy (maximum effect), percent immobility [8]: 58%
